Measured values taken from patent US9586951B2 (FUJIFILM Corporation, priority 2013, dated 2017).

What was measured:
ATM = molecular target: T1, ATM (Homo sapiens, UniProt Q13315); assay: ATM inhibition test (phosphorylation of Chk2 generated by ionizing radiation, AlphaScreen SureFire); type: cell-based; conditions: phosphorylated Chk2 in NCI-H460 cells, ionizing radiation 8Gy, 1 hour after test compound treatment; read-out: ATM inhibitory activity
T1 construct: detecting phosphorylation of Chk2 in a human non-small cell lung cancer cell line NCI-H460 (ATCC company); host or cells: NCI-H460 human non-small cell lung cancer cells
Summary of the method: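 NCI-H460 cells, compound 1 h pre-treatment, 8Gy IR, further 1 h at 37° C in 5% CO2. Read-out: phospho-Chk2 via AlphaScreen SureFire. % inhibition relative to IR-induced signal window (irradiated vs non-irradiated drug-free wells).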

[1] = system: human non-small cell lung cancer cell line NCI-H460; assay: Cell proliferation inhibition test by sensitivity-enhancing to ionizing radiation (Cell Titer Glo); type: cell-based; conditions: Homo sapiens, NCI-H460, 120 h, concentration in which SER became 2; NCI-H460 cells, ionizing radiation 2 Gy, cultured 120 hour
Summary of the method: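 Radiosensitisation measured as SER, a ratio of Cell Titer Glo luminescence in irradiated vs unirradiated plates relative to DMSO; SER2, the concentration yielding SER 2, came from sigmoidal regression. Compound (0.1% DMSO) was given 24 h post-seeding, 2 Gy applied 30 min later, then 120 hour culture at 37° C.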

T1 sequence (Q13315 whole entry): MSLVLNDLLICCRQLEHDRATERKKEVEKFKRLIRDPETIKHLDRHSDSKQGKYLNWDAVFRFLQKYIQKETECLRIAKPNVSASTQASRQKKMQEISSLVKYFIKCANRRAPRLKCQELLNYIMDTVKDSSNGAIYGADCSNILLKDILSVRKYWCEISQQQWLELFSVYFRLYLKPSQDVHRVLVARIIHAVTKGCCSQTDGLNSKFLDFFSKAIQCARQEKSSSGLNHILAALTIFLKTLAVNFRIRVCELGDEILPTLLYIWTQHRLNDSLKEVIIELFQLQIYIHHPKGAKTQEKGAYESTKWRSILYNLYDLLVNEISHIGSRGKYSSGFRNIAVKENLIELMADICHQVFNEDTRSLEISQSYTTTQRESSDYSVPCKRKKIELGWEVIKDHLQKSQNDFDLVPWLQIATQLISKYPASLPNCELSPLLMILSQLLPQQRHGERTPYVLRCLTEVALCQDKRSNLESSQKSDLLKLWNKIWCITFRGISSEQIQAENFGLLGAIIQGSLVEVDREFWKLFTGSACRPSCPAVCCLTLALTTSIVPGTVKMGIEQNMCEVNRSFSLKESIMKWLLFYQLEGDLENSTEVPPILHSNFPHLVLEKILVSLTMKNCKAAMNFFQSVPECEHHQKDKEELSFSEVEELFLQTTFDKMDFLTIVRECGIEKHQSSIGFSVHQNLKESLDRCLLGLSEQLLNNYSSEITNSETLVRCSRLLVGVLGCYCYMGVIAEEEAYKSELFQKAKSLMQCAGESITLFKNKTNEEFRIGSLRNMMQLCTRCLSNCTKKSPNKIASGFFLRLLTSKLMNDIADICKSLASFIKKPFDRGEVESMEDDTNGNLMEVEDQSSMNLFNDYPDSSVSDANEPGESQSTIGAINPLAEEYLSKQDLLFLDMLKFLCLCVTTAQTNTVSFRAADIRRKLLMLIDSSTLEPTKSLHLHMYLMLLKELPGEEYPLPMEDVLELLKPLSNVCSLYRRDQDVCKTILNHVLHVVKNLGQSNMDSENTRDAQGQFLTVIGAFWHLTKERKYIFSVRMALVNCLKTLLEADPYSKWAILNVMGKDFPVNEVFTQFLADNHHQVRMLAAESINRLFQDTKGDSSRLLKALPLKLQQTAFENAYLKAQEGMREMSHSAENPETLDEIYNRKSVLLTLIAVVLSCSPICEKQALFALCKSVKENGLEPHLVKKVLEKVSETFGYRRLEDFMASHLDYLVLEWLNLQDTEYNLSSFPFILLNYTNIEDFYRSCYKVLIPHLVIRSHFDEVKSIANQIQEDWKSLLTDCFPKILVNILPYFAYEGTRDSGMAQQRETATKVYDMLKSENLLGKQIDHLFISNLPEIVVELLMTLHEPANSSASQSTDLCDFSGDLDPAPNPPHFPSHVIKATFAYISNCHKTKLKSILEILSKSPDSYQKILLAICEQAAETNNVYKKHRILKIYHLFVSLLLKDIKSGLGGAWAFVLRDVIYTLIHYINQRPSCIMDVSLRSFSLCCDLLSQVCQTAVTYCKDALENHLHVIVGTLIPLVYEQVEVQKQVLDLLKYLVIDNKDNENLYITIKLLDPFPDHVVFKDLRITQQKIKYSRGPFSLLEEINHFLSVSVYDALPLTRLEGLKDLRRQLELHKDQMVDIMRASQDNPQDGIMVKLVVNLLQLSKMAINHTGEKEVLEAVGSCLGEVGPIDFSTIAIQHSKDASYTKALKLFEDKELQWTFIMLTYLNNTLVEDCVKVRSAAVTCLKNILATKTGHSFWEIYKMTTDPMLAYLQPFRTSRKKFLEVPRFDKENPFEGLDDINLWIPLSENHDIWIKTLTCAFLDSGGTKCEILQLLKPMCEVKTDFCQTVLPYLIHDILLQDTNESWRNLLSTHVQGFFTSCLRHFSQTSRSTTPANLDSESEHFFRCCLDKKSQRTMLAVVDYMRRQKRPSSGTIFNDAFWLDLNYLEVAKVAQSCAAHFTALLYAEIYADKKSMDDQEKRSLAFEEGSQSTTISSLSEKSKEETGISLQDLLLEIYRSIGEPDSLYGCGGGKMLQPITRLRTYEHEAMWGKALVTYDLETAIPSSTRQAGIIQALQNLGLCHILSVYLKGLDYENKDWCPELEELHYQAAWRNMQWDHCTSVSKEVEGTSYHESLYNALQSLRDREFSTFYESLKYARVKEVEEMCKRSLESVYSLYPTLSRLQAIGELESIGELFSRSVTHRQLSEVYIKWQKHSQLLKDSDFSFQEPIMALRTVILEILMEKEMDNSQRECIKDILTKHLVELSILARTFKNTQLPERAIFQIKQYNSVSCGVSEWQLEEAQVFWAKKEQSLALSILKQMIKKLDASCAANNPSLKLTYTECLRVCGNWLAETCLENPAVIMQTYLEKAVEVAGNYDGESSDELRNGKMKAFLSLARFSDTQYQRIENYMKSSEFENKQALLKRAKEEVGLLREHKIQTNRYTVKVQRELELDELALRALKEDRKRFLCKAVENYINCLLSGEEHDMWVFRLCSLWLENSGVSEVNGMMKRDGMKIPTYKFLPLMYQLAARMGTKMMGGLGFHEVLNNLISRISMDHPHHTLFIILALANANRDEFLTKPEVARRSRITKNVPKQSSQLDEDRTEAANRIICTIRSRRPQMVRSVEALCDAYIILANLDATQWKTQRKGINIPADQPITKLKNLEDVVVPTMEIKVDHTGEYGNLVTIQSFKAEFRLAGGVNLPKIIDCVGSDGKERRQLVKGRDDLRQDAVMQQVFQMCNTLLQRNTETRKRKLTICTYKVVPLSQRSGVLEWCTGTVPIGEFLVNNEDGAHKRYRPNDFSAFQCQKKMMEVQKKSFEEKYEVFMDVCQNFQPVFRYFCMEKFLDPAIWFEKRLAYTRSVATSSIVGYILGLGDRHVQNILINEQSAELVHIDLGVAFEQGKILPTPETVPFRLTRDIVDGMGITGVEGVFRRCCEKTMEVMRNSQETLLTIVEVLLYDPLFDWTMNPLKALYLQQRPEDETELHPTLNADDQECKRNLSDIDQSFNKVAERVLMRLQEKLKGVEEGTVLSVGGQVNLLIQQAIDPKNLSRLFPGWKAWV

Structure (SMILES)	IC50 (ATM) [µM]	SER2 (concentration at which the radiation sensitivity-enhancement ratio reaches 2) [1] [nM]
CN(C)c1cnc(CNc2ccc3c(c2)Sc2cccc(-c4cc(N5CCOCC5)cc(=O)[nH]4)c2O3)cn1 [Example 4-4-17, 6-(8-(((5-(Dimethylamino)pyrazin-2-yl)methyl)amino)phenoxathiin-4-yl)-4-morpholino pyridin-2(1H)-one]	< 0.1	100 to 500
O=c1cc(N2CCOCC2)cc(-c2cccc3c2Oc2ccc(NCc4cccc(Cl)n4)cc2S3)[nH]1 [Example 4-4-20, 6-(8-(((6-Chloropyridin-2-yl)methyl)amino)phenoxathiin-4-yl)-4-morpholino pyridin-2(1H)-one]	< 0.1	100 to 500
COc1cccnc1CNc1ccc2c(c1)Sc1cccc(-c3cc(N4CCOCC4)cc(=O)[nH]3)c1O2 [Example 4-4-22, 6-(8-(((3-Methoxypyridin-2-yl)methyl)amino)phenoxathiin-4-yl)-4-morpholino pyridin-2(1H)-one]	< 0.1	500 to 2000
N#Cc1cccc(CNc2ccc3c(c2)Sc2cccc(-c4cc(N5CCOCC5)cc(=O)[nH]4)c2O3)n1 [Example 4-4-25, 6-(((6-(4-Morpholino-6-oxo-1,6-dihydropyridin-2-yl)phenoxathiin-2-yl)amino)methyl)picolinonitrile]	< 0.1	500 to 2000
N#Cc1ccnc(CNc2ccc3c(c2)Sc2cccc(-c4cc(N5CCOCC5)cc(=O)[nH]4)c2O3)c1 [Example 4-4-28, 2-(((6-(4-Morpholino-6-oxo-1,6-dihydropyridin-2-yl)phenoxathiin-2-yl)amino)methyl) isonicotinonitrile]	< 0.1	100 to 500
Cc1cncc(C(C)Nc2ccc3c(c2)Sc2cccc(-c4cc(N5CCOCC5)cc(=O)[nH]4)c2O3)c1 (stereo not drawn) [Example 4-4-29, 6-(8-((1-(5-Methylpyridin-3-yl)ethyl)amino)phenoxathiin-4-yl)-4-morpholino pyridin-2(1H)-one]	< 0.1	100 to 500
Cc1cccc(C(C)Nc2ccc3c(c2)Sc2cccc(-c4cc(N5CCOCC5)cc(=O)[nH]4)c2O3)n1 (stereo not drawn) [Example 4-4-30, 6-(8-((1-(6-Methylpyridin-2-yl)ethyl)amino)phenoxathiin-4-yl)-4-morpholino pyridin-2(1H)-one]	< 0.1	100 to 500
COc1cncc(CNc2ccc3c(c2)Sc2cccc(-c4cc(N5CCOCC5)cc(=O)[nH]4)c2O3)c1 [Example 4-8-1, 6-(8-(((5-Methoxypyridin-3-yl)methyl)amino)phenoxathiin-4-yl)-4-morpholinopyridin-2(1H)-one]	< 0.1	100 to 500
O=c1cc(N2CCOCC2)cc(-c2cccc3c2Oc2ccc(NC4CCN(CCc5ccccc5)CC4)cc2S3)[nH]1 [Example 4-10, 4-Morpholino-6-(8-((1-phenethylpiperidin-4-yl)amino)phenoxathiin-4-yl)pyridin-2(1H)-one]	< 0.1	100 to 500

More lines, main results first:

IC50 (ATM) [µM]	Structure (SMILES)	SER2 (concentration at which the radiation sensitivity-enhancement ratio reaches 2) [1] [nM]
< 0.1	Cc1cccc(CNc2ccc3c(c2)Sc2cccc(-c4cc(N5CCOCC5)cc(=O)[nH]4)c2O3)n1 [Example 4-8-5, 6-(8-(((6-Methylpyridin-2-yl)methyl)amino)phenoxathiin-4-yl)-4-morpholino pyridin-2(1H)-one]	100 to 500
< 0.1	COc1ccnc(CNc2ccc3c(c2)Sc2cccc(-c4cc(N5CCOCC5)cc(=O)[nH]4)c2O3)c1 [Example 4-8-8, 6-(8-(((4-Methoxypyridin-2-yl)methyl)amino)phenoxathiin-4-yl)-4-morpholino pyridin-2 (1H)-one]	100 to 500
< 0.1	O=c1cc(N2CCOCC2)cc(-c2cccc3c2Oc2ccc(NCc4cncc(F)c4)cc2S3)[nH]1 [Example 4-8-12, 6-(8-(((5-Fluoropyridin-3-yl)methyl)amino)phenoxathiin-4-yl)-4-morpholino pyridin-2(1H)-one]	100 to 500
< 0.1	Cc1ccc(CNc2ccc3c(c2)Sc2cccc(-c4cc(N5CCOCC5)cc(=O)[nH]4)c2O3)nc1 [Example 4-8-13, 6-(8-(((5-Methylpyridin-2-yl)methyl)amino)phenoxathiin-4-yl)-4-morpholino pyridin-2(1H)-one]	100 to 500
< 0.1	O=c1cc(N2CCOCC2)cc(-c2cccc3c2Oc2ccc(NCc4cncc(C5CCCC5)c4)cc2S3)[nH]1 [Example 4-8-15, 6-(8-(((5-Cyclopentylpyridin-3-yl)methyl)amino)phenoxathiin-4-yl)-4-morpholino pyridin-2(1H)-one]	500 to 2000
< 0.1	COc1ccc(CNc2ccc3c(c2)Sc2cccc(-c4cc(N5CCOCC5)cc(=O)[nH]4)c2O3)nc1 [Example 4-8-17, 6-(8-(((5-Methoxypyridin-2-yl)methyl)amino)phenoxathiin-4-yl)-4-morpholino pyridin-2(1H)-one]	100 to 500
< 0.1	COc1cccc(CNc2ccc3c(c2)Sc2cccc(-c4cc(N5CCOCC5)cc(=O)[nH]4)c2O3)n1 [Example 4-8-18, 6-(8-(((6-Methoxypyridin-2-yl)methyl)amino)phenoxathiin-4-yl)-4-morpholino pyridin-2 (1H)-one]	100 to 500
< 0.1	Cc1ccnc(CNc2ccc3c(c2)Sc2cccc(-c4cc(N5CCOCC5)cc(=O)[nH]4)c2O3)c1 [Example 4-8-19, 6-(8-(((4-Methylpyridin-2-yl)methyl)amino)phenoxathiin-4-yl)-4-morpholino pyridin-2(1H)-one]	100 to 500
< 0.1	O=c1cc(N2CCOCC2)cc(-c2cccc3c2Oc2ccc(NCc4cncc(Br)c4)cc2S3)[nH]1 [Example 4-8-22, 6-(8-(((5-Bromopyridin-3-yl)methyl)amino)phenoxathiin-4-yl)-4-morpholino pyridin-2(1H)-one]	100 to 500
< 0.1	Cc1ccc(CNc2ccc3c(c2)Sc2cccc(-c4cc(N5CCOCC5)cc(=O)[nH]4)c2O3)cn1 [Example 4-8-23, 6-(8-(((6-Methylpyridin-3-yl)methyl)amino)phenoxathiin-4-yl)-4-morpholino pyridin-2(1H)-one]	100 to 500
< 0.1	O=c1cc(N2CCOCC2)cc(-c2cccc3c2Oc2ccc(NCc4ccc(F)nc4)cc2S3)[nH]1 [Example 4-8-24, 6-(8-(((6-Fluoropyridin-3-yl)methyl)amino)phenoxathiin-4-yl)-4-morpholino pyridin-2(1H)-one]	100 to 500
< 0.1	O=c1cc(N2CCOCC2)cc(-c2cccc3c2Oc2ccc(NCc4ccc(Cl)nc4)cc2S3)[nH]1 [Example 4-8-25, 6-(8-(((6-Chloropyridin-3-yl)methyl)amino)phenoxathiin-4-yl)-4-morpholino pyridin-2(1H)-one]	100 to 500
